Each structure is given as a SMILES string. Bounds are passed on as bounds.

One series addresses T1, Human Mineralocorticoid Receptor (hMR) (Homo sapiens, UniProt P08235).
T1 construct: Full-length cDNA was constructed from two fragments of hMR cDNA amplified separately; expressed in transfected cells; host or cells: FreeStyle 293 cells transiently transfected with pMCMVneo-hMR; supernatant of the freeze-thaw lysate after ultracentrifugation
T1 sequence (P08235 1-984): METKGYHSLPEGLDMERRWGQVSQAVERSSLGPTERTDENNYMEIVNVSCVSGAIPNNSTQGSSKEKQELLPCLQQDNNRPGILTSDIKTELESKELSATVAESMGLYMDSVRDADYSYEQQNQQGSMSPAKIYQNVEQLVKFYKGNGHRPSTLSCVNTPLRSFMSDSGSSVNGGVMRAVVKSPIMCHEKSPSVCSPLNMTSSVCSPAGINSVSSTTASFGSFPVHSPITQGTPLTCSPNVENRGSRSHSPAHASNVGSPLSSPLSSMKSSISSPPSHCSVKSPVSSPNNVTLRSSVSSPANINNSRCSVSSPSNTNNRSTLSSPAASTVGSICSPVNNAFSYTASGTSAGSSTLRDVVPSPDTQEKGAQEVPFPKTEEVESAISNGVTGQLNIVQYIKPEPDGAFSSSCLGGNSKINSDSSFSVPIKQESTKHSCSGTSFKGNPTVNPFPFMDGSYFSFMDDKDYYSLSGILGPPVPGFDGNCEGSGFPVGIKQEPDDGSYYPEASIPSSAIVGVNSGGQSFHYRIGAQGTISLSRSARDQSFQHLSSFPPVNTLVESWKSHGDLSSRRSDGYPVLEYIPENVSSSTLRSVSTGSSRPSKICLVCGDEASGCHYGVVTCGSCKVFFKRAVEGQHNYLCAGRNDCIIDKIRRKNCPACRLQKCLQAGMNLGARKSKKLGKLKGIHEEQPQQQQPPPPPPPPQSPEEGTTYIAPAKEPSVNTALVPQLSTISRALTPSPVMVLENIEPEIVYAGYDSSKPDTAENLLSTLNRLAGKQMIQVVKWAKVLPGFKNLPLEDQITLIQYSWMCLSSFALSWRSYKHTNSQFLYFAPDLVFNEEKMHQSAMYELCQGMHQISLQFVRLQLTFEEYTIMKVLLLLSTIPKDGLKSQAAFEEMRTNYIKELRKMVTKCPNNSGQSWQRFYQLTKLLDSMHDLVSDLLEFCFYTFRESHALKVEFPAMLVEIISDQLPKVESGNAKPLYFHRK
Nature of the series: Inhibition of binding of [3H]-aldosterone to hMR (lysate of FreeStyle 293 cells expressing hMR). The following applies: compound at 10^−5 M; 10 nM [3H]-aldosterone; hMR lysate 1.0 mg/ml; 16 hr at 4° C.; read-out: Inhibition rate (at 10^−5 M). The procedure:
The following procedures described in this Example were carried out according to the methods described in Molecular Cloning—Cold Spring Harbor Laboratory (1989) or protocols specified by manufacturers. (1) Cloning of Human Mineralocorticoid Receptor (hMR) cDNA hMR cDNA was amplified by polymerase chain reaction (PCR) from human kidney cDNA library. Full-length cDNA was constructed from two fragments of hMR cDNA amplified separately. The primers were designed referring to the nucleotide sequence of hMR cDNA reported by Arriza et. al (Science 1987; 237: 268-275). The PCR reactions were carried out using Pyrobest® DNA polymerase (Takara). The PCR products were electrophoresed in agarose gel, and 1.7 kb (region (i)) and 1.5 kb (region (ii)) DNA fragments were recovered. Each DNA fragment was inserted into pCR®4Blunt-TOPO® vector (Invitrogen). The resulting plasmids thus obtained were designated as pB-hMR (i) and pB-hMR (ii). To obtain the full-length hMR cDNA, pB-hMR (i) was digested with XhoI and PvuI, and pB-hMR (ii) was digested with PvuI and KpnI, respectively, and the two cDNA fragments were ligated into pBlueScript®IISK+ vector (Stratagene). The resulting plasmid thus obtained was designated as pB-hMR. (2) Construction of hMR Expression Plasmid pMCMVneo (described in WO03/099793) was digested with XhoI and KpnI, and 5.6 kb fragment was ligated with 2.9 kb hMR cDNA fragment obtained by digestion of pB-hMR (described in above (1)) with XhoI and KpnI. The plasmid thus obtained was designated as pMCMVneo-hMR. (3) Expression of hMR in FreeStyle 293 Cells and Preparation of Cell Lysate FreeStyle 293 cells were inoculated at 1×10^8 cells in 93 ml FreeStyle™ 293 Expression Medium (Invitrogen) in a 500 ml Erlenmeyer flask and cultured at 37° C. under 8% CO2 for 1 hr. The cells were treated with 6.7 ml of the transfection mixture containing 100 μg of pMCMVneo-hMR obtained in above (2) and 133 μl of FreeStyle™ 293 Transfection Reagent (Invitrogen). The transfected cells were cultivated for 48 hr at 37° C. in 8% CO2 atmosphere. The cultivated cells were centrifuged and washed with TEG buffer (10 mM Tris-HCl (pH 7.2), 50 mM EDTA, 10% glycerol), and resuspended in 10 ml TEGM buffer (10 mM Tris-HCl (pH 7.2), 1 mM EDTA, 10% glycerol, 1 mM β-mercaptoethanol, 10 mM sodium molybdate, 1 mM dithiothreitol, 2 tablets/100 ml of protease inhibitor cocktail tablets (Roche)). The cell suspension was frozen with liquid nitrogen and thawed on ice, and ultra-centrifuged at 225,000×g for 20 min at 4° C. The supernatant fraction including hMR (hMR lysate) was collected and stored at −80° C. (4) Measurement of Inhibition Activity Against Binding of hMR and Aldosterone [^3H]-Aldosterone (Amersham Biosciences) as ligand was added at 10 nM to the reaction mixture including test compound at various concentration and hMR lysate (1.0 mg/ml) obtained in above (3) and mixture was filled up to 50.5 μl with TEGM buffer. The reaction mixture was incubated for 16 hr at 4° C. and 35 μl of dextran/gelatin coated charcoal suspension (5% charcoal, 0.5% dextran T-70 (Amersham Biosciences), 0.1% gelatin (SIGMA), 10 mM Tris HCl (pH 7.2), 1 mM EDTA) was added thereto to separate bound and free radioactive aldosterone. The mixture containing charcoal was incubated for 10 min at 4° C. and centrifuged at 910×g for 10 min at 4° C. Radioactivity in 30 μl of the supernatant was measured by TopCount™ (Packard). For the determination of nonspecific binding, cold Aldosterone instead of drug was added to reaction mixture at 100 μM. Specific binding was determined by subtracting nonspecific binding from total binding.
What is called inhibition is how much of the control response was suppressed. As to `Cc1ccccc1-n1nc(C(F)(F)F)cc1-c1ccc2c(c1)NC(=O)CO2` [Example 82, 6-(1-o-tolyl-3-(trifluoromethyl)-1H-pyrazol-5-yl)-2H-benzo[b][1,4]oxazin-3(4H)-one], the inhibition at 10 µM was at least 70%.

For `Cc1cc(Cl)ccc1-n1nc(C(F)(F)F)cc1-c1ccc2c(c1)NC(=O)CO2` [Example 86, 6-(1-(4-chloro-2-methylphenyl)-3-(trifluoromethyl)-1H-pyrazol-5-yl)-2H-benzo[b][1,4]oxazin-3(4H)-one], the inhibition at 10 µM is at least 70%.

On to `Cc1ccc(C)c(-n2nc(C(F)(F)F)cc2-c2ccc3c(c2)NC(=O)CO3)c1` [Example 93, 6-(1-(2,5-dimethylphenyl)-3-(trifluoromethyl)-1H-pyrazol-5-yl)-2H-benzo[b][1,4]oxazin-3(4H)-one], for which the inhibition at 10 µM was at least 70%.

Take `O=C1COc2ccc(-c3cc(C(F)(F)F)nn3-c3ccccc3)cc2N1` [Example 96, 6-(1-Phenyl-3-(trifluoromethyl)-1H-pyrazol-5-yl)-2H-benzo[b][1,4]oxazin-3(4H)-one]: the inhibition at 10 µM was at least 70%.

`O=C1COc2ccc(-c3cc(C(F)(F)C(F)(F)F)nn3-c3ccc(F)cc3)cc2N1` [Example 100, 6-(1-(4-Fluorophenyl)-3-(perfluoroethyl)-1H-pyrazol-5-yl)-2H-benzo[b][1,4]oxazin-3(4H)-one]: the inhibition at 10 µM is at least 70%.

On to `Cc1cc(F)ccc1-n1nc(C(F)(F)F)cc1-c1ccc2c(c1)NC(=O)CO2` [Example 107, 6-(1-(4-fluoro-2-methylphenyl)-3-(trifluoromethyl)-1H-pyrazol-5-yl)-2H-benzo[b][1,4]oxazin-3(4H)-one], for which the inhibition at 10 µM is at least 70%.

`Cc1cc(F)ccc1-n1nc(C(F)(F)F)cc1-c1cc(F)c2c(c1)NC(=O)CO2` [Example 108, 8-fluoro-6-(1-(4-fluoro-2-methylphenyl)-3-(trifluoromethyl)-1H-pyrazol-5-yl)-2H-benzo[b][1,4]oxazin-3(4H)-one]: the inhibition at 10 µM was at least 70%.

With `Cc1cc(F)ccc1-n1nc(C(F)(F)F)cc1-c1cc(C)c2c(c1)NC(=O)CO2` [Example 110, 6-(1-(4-fluoro-2-methylphenyl)-3-(trifluoromethyl)-1H-pyrazol-5-yl)-8-methyl-2H-benzo[b][1,4]oxazin-3(4H)-one], the inhibition at 10 µM was at least 70%.

On to `O=C1COc2c(Cl)cc(C3=Cn4ccnc4SC3c3ccc(F)cc3)cc2N1` (centres unmarked) [Example 118, 8-chloro-6-[7-(4-fluorophenyl)-7H-imidazo[2,1-b][1,3]thiazin-6-yl]-2H-1,4-benzoxazin-3(4H)-one], for which the inhibition at 10 µM was at least 70%.

Consider `N#Cc1ccc2c(c1)SC(c1ccccc1)C(c1ccc3c(c1)NC(=O)CO3)=C2` (centres unmarked) [Example 130, 3-(3-oxo-3,4-dihydro-2H-1,4-benzoxazin-6-yl)-2-phenyl-2H-thiochromene-7-carbonitrile], for which the inhibition at 10 µM is at least 70%.

Turning to `O=C1COc2ccc(C3=Cc4ccccc4SC3c3ccc(F)cc3)cc2N1` (centres unmarked) [Example 158, 6-[2-(4-fluorophenyl)-2H-thiochromen-3-yl]-2H-1,4-benzoxazin-3(4H)-one], the inhibition at 10 µM is at least 70%.

As for `Cc1cc(C2=Nn3cnnc3SC2c2ccc(F)cc2)cc2c1OCC(=O)N2` (centres unmarked) [Example 185, 6-[7-(4-fluorophenyl)-7H-[1,2,4]triazolo[3,4-b][1,3,4]thiadiazin-6-yl]-8-methyl-2H-1,4-benzoxazin-3(4H)-one], the inhibition at 10 µM is at least 70%.

For the molecule `O=C1COc2c(F)cc(C3=Nn4cnnc4SC3c3ccc(F)cc3)cc2N1` (centres unmarked) [Example 195, 8-fluoro-6-[7-(4-fluorophenyl)-7H-[1,2,4]triazolo[3,4-b][1,3,4]thiadiazin-6-yl]-2H-1,4-benzoxazin-3(4H)-one], the inhibition at 10 µM was at least 70%.

With `Cc1cc(F)ccc1-n1nc(C(F)(F)F)cc1-c1cc(C)c2c(n1)NC(=O)CO2` [Example 255, 6-[1-(4-fluoro-2-methylphenyl)-3-(trifluoromethyl)-1H-pyrazol-5-yl]-8-methyl-2H-pyrido[3,2-b][1,4]oxazin-3(4H)-one], the inhibition at 10 µM was at least 70%.

Take `Cc1nn(C)c(-c2ccc3c(c2)NC(=O)CO3)c1-c1ccccc1` [Example 288, 6-(1,3-dimethyl-4-phenyl-1H-pyrazol-5-yl)-2H-benzo[b][1,4]oxazin-3(4H)-one]: the inhibition at 10 µM was at least 70%.

Turning to `Cc1cc(F)ccc1-n1nc(C(C)(F)F)cc1-c1cc(C)c2c(c1)NC(=O)CO2` [Example 310, 6-(3-(1,1-Difluoroethyl)-1-(4-fluoro-2-methylphenyl)-1H-pyrazol-5-yl)-8-methyl-2H-benzo[b][1,4]oxazin-3(4H)-one], the inhibition at 10 µM is at least 70%.

Tested on in another series: not given
Assay: not given
Conditions: not given
Broadly, the melting point is the temperature of the solid-liquid transition. For `O=C1COc2ccc(C3=Cc4ccccc4[S+]([O-])C3c3ccccc3)cc2N1` (centres unmarked) [Example 22, 6-(1-oxido-2-phenyl-2H-thiochromen-3-yl)-2H-1,4-benzoxazin-3(4H)-one], the melting point was 228 °C.

The values above are taken from US20090253687A1, “Fused Heterocyclic Compounds and Their Use as Mineralocorticoid Receptor Ligands” (priority 2005, published 2009).
